IC50 data for two compounds are collected here from patent US20080032992A1, “New Pyridine Analogues V” (ASTRAZENECA AB, priority 2006, published 2008).

The target of this assay is T1, P2Y12 receptor (Homo sapiens, UniProt Q9H244).
T1 construct: expressed in transfected cells; host or cells: CHO cells (membranes)
Description: Functional inhibition of 2-Me-S-ADP induced P2Y12 signalling (35S-GTPγS binding, membranes from P2Y12 transfected CHO-cells). The assay is classed as biochemical. The conditions noted are these: EC80 concentration of agonist 2-methyl-thio-adenosine diphosphate, 30° C. for 45 min. Here is the method: Functional inhibition of the P2Y12 receptor can be measured by in vitro assays using cell membranes from P2Y12 transfected CHO-cells, the methodology is indicated below.
Functional inhibition of 2-Me-S-ADP induced P2Y12 signalling: 5 μg of membranes were diluted in 200 μl of 200 mM NaCl, 1 mM MgCl2, 50 mM HEPES (pH 7.4), 0.01% BSA, 30 μg/ml saponin and 10 μM GDP. To this was added an EC80 concentration of agonist (2-methyl-thio-adenosine diphosphate), the required concentration of test compound and 0.1 μCi ^35S-GTPγS. The reaction was allowed to proceed at 30° C. for 45 min. Samples were then transferred on to GF/B filters using a cell harvester and washed with wash buffer (50 mM Tris (pH 7.4), 5 mM MgCl2, 50 mM NaCl). Filters were then covered with scintillate and counted for the amount of ^35S-GTPγS retained by the filter. Maximum activity was that determined in the presence of the agonist and minimum activity in the absence of the agonist following subtraction of the value determined for non-specific activity. The effect of compounds at various concentrations was plotted according to the equation y=A+((B−A)/(1+((C/x)ˆD))) and IC50 estimated where
A is the bottom plateau of the curve i.e. the final minimum y value
B is the top of the plateau of the curve i.e. the final maximum y value
C is the x value at the middle of the curve. This represents the log EC50 value when A+B=100 […]

T1 sequence (Q9H244 whole entry): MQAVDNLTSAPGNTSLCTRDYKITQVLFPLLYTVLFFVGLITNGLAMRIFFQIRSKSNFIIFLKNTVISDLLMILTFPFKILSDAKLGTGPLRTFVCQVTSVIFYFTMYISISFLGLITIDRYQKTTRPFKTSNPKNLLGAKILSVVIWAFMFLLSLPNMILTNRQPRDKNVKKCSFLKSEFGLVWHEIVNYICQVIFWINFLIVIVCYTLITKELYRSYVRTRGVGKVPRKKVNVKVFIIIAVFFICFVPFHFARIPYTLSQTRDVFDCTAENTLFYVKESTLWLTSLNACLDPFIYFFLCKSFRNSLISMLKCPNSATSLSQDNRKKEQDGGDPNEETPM

`CCOC(=O)c1cc(C#N)c(N2CCN(Cc3cn(-c4ccccc4)nn3)CC2)nc1C` [Example 2, Ethyl 5-cyano-2-methyl-6-{4-[(1-phenyl-1H-1,2,3-triazol-4-yl)methyl]piperazin-1-yl}nicotinate]: the IC50 stood at 690 nM.
As for `CCOC(=O)c1cc(C#N)c(N2CCC(c3nnc(-c4ccccc4)[nH]3)CC2)nc1C` [Example 3, Ethyl 5-cyano-2-methyl-6-[4-(5-phenyl-4-h-1,2,4-triazol-3-yl)piperidin-1-yl]nicotinate], the IC50 was 330 nM.
